# Measurements taken from PubChem BioAssay AID1963972 (Molecular Pharmacology Branch, DTP, NCI, 2024).
# Test system: 945468-187-T-J2-PDC spheroids viability
# Experiment: Anticancer human tumor 945468-187-T-J2-PDC patient-derived rectal carcinoma cell line growth inhibition [PI3K]
# Conditions: spheroids with HUVEC and MSC; for IC50: curve of first compound; for viability, T/C: stronger effect = lower value
# Method in brief: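 High-throughput combination screen: PI3K inhibitors crossed with targeted small molecules on complex spheroids of tumor cells, HUVEC and MSCs at 37 degrees C, 5% CO2. Top concentration was at or near clinical Cmax (otherwise 10 microM), with half-log decrements.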
# [1] = second compound 0.0316 µM, first compound 0.000316 µM
# [2] = second compound 0.0316 µM, first compound 0.001 µM
# [3] = second compound 0.0316 µM, first compound 0.00316 µM
# [4] = second compound 0.0316 µM, first compound 0.01 µM
# [5] = second compound 0.0316 µM, first compound 0.0316 µM
# [6] = second compound 0.0316 µM, first compound 0.1 µM
# [7] = second compound 0.1 µM, first compound 0.000316 µM
# [8] = second compound 0.1 µM, first compound 0.001 µM
# [9] = second compound 0.1 µM, first compound 0.00316 µM
# [10] = second compound 0.1 µM, first compound 0.01 µM
# [11] = second compound 0.1 µM, first compound 0.0316 µM
# [12] = second compound 0.1 µM, first compound 0.1 µM
# [13] = second compound 0.316 µM, first compound 0.000316 µM
# [14] = second compound 0.316 µM, first compound 0.001 µM
# [15] = second compound 0.316 µM, first compound 0.00316 µM
# [16] = second compound 0.316 µM, first compound 0.01 µM
# [17] = second compound 0.316 µM, first compound 0.0316 µM
# [18] = second compound 0.316 µM, first compound 0.1 µM
# [19] = second compound 1 µM, first compound 0.000316 µM
# [20] = second compound 1 µM, first compound 0.001 µM
# [21] = second compound 1 µM, first compound 0.00316 µM
# [22] = second compound 1 µM, first compound 0.01 µM
# [23] = second compound 1 µM, first compound 0.0316 µM
# [24] = second compound 1 µM, first compound 0.1 µM
# [25] = second compound 3.16 µM, first compound 0.000316 µM
# [26] = second compound 3.16 µM, first compound 0.001 µM
# [27] = second compound 3.16 µM, first compound 0.00316 µM
# [28] = second compound 3.16 µM, first compound 0.01 µM
# [29] = second compound 3.16 µM, first compound 0.0316 µM
# [30] = second compound 3.16 µM, first compound 0.1 µM
# [31] = second compound 10 µM, first compound 0.000316 µM
# [32] = second compound 10 µM, first compound 0.001 µM
# [33] = second compound 10 µM, first compound 0.00316 µM
# [34] = second compound 10 µM, first compound 0.01 µM
# [35] = second compound 10 µM, first compound 0.0316 µM
# [36] = second compound 10 µM, first compound 0.1 µM
# [37] = second compound 0.0316 µM, first compound 0.316 µM
# [38] = second compound 0.0316 µM, first compound 1 µM
# [39] = second compound 0.0316 µM, first compound 3.16 µM
# [40] = second compound 0.0316 µM, first compound 10 µM
# [41] = second compound 0.1 µM, first compound 0.316 µM
# [42] = second compound 0.1 µM, first compound 1 µM
# [43] = second compound 0.1 µM, first compound 3.16 µM
# [44] = second compound 0.1 µM, first compound 10 µM
# [45] = second compound 0.316 µM, first compound 0.316 µM
# [46] = second compound 0.316 µM, first compound 1 µM
# [47] = second compound 0.316 µM, first compound 3.16 µM
# [48] = second compound 0.316 µM, first compound 10 µM
# [49] = second compound 1 µM, first compound 0.316 µM
# [50] = second compound 1 µM, first compound 1 µM
# [51] = second compound 1 µM, first compound 3.16 µM
# [52] = second compound 1 µM, first compound 10 µM
# [53] = second compound 3.16 µM, first compound 0.316 µM
# [54] = second compound 3.16 µM, first compound 1 µM
# [55] = second compound 3.16 µM, first compound 3.16 µM
# [56] = second compound 3.16 µM, first compound 10 µM
# [57] = second compound 10 µM, first compound 0.316 µM
# [58] = second compound 10 µM, first compound 1 µM
# [59] = second compound 10 µM, first compound 3.16 µM
# [60] = second compound 10 µM, first compound 10 µM
# 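Note: spheroids exposed to compounds for seven days before reading.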
smiles,measurement,setting,value
CC(=O)c1c(C)c2cnc(Nc3ccc(N4CCNCC4)cn3)nc2n(C2CCCC2)c1=O + Cc1nc(NC(=O)N2CCCC2C(N)=O)sc1-c1ccnc(C(C)(C)C(F)(F)F)c1,IC50,second compound 0.0316 µM,> 0.1 µM
same,IC50,second compound 0.1 µM,> 0.1 µM
same,IC50,second compound 0.316 µM,> 0.1 µM
same,IC50,second compound 1 µM,> 0.1 µM
same,IC50,second compound 3.16 µM,> 0.1 µM
same,IC50,second compound 10 µM,> 0.1 µM
same,"viability, T/C",[1],79.2%
same,"viability, T/C",[2],88.4%
same,"viability, T/C",[3],89.4%
same,"viability, T/C",[4],121%
same,"viability, T/C",[5],79.5%
same,"viability, T/C",[6],98.2%
same,"viability, T/C",[7],86.1%
same,"viability, T/C",[8],84.2%
same,"viability, T/C",[9],89.6%
same,"viability, T/C",[10],84.1%
same,"viability, T/C",[11],110%
same,"viability, T/C",[12],103%
same,"viability, T/C",[13],93.7%
same,"viability, T/C",[14],107%
same,"viability, T/C",[15],95.5%
same,"viability, T/C",[16],88.6%
same,"viability, T/C",[17],118%
same,"viability, T/C",[18],136%
same,"viability, T/C",[19],118%
same,"viability, T/C",[20],110%
same,"viability, T/C",[21],75.7%
same,"viability, T/C",[22],78%
same,"viability, T/C",[23],94.9%
same,"viability, T/C",[24],90.3%
same,"viability, T/C",[25],79.2%
same,"viability, T/C",[26],71.7%
same,"viability, T/C",[27],82.8%
same,"viability, T/C",[28],75.3%
same,"viability, T/C",[29],83%
same,"viability, T/C",[30],78.2%
same,"viability, T/C",[31],83%
same,"viability, T/C",[32],66.7%
same,"viability, T/C",[33],78%
same,"viability, T/C",[34],64.5%
same,"viability, T/C",[35],92.7%
same,"viability, T/C",[36],76.3%
CC(C)n1nc(-c2ccc3oc(N)nc3c2)c2c(N)ncnc21 + Cc1nc(NC(=O)N2CCCC2C(N)=O)sc1-c1ccnc(C(C)(C)C(F)(F)F)c1,IC50,second compound 0.0316 µM,> 0.1 µM
same,IC50,second compound 0.1 µM,> 0.1 µM
same,IC50,second compound 0.316 µM,> 0.1 µM
same,IC50,second compound 1 µM,> 0.1 µM
same,IC50,second compound 3.16 µM,0.0583 µM
same,IC50,second compound 10 µM,0.0213 µM
same,"viability, T/C",[1],91.4%
same,"viability, T/C",[2],109%
same,"viability, T/C",[3],69.1%
same,"viability, T/C",[4],83.5%
same,"viability, T/C",[5],77.9%
same,"viability, T/C",[6],71.2%
same,"viability, T/C",[7],103%
same,"viability, T/C",[8],77.7%
same,"viability, T/C",[9],88.6%
same,"viability, T/C",[10],81.4%
same,"viability, T/C",[11],84.9%
same,"viability, T/C",[12],55.6%
same,"viability, T/C",[13],65.9%
same,"viability, T/C",[14],68.2%
same,"viability, T/C",[15],80.4%
same,"viability, T/C",[16],81.5%
same,"viability, T/C",[17],75.3%
same,"viability, T/C",[18],68.8%
same,"viability, T/C",[19],70.3%
same,"viability, T/C",[20],80.6%
same,"viability, T/C",[21],73.2%
same,"viability, T/C",[22],91.5%
same,"viability, T/C",[23],75.3%
same,"viability, T/C",[24],57.9%
same,"viability, T/C",[25],77%
same,"viability, T/C",[26],68.9%
same,"viability, T/C",[27],75.2%
same,"viability, T/C",[28],78.1%
same,"viability, T/C",[29],64%
same,"viability, T/C",[30],37.6%
same,"viability, T/C",[31],77.5%
same,"viability, T/C",[32],62.4%
same,"viability, T/C",[33],66.9%
same,"viability, T/C",[34],58.7%
same,"viability, T/C",[35],46.5%
same,"viability, T/C",[36],27.2%
CC1(C)CCC(CN2CCN(c3ccc(C(=O)NS(=O)(=O)c4ccc(NCC5CCOCC5)c([N+](=O)[O-])c4)c(Oc4cnc5[nH]ccc5c4)c3)CC2)=C(c2ccc(Cl)cc2)C1 + Cc1nc(NC(=O)N2CCCC2C(N)=O)sc1-c1ccnc(C(C)(C)C(F)(F)F)c1,IC50,second compound 0.0316 µM,> 10 µM
same,IC50,second compound 0.1 µM,> 10 µM
same,IC50,second compound 0.316 µM,> 10 µM
same,IC50,second compound 1 µM,> 10 µM
same,IC50,second compound 3.16 µM,> 10 µM
same,IC50,second compound 10 µM,> 10 µM
same,"viability, T/C",[5],101%
same,"viability, T/C",[6],99.6%
same,"viability, T/C",[37],121%
same,"viability, T/C",[38],103%
same,"viability, T/C",[39],98.7%
same,"viability, T/C",[40],61.4%
same,"viability, T/C",[11],118%
same,"viability, T/C",[12],97.5%
same,"viability, T/C",[41],116%
same,"viability, T/C",[42],99.5%
same,"viability, T/C",[43],110%
same,"viability, T/C",[44],66.2%
same,"viability, T/C",[17],113%
same,"viability, T/C",[18],83.7%
same,"viability, T/C",[45],108%
same,"viability, T/C",[46],91.7%
same,"viability, T/C",[47],80.2%
same,"viability, T/C",[48],66.6%
same,"viability, T/C",[23],102%
same,"viability, T/C",[24],102%
same,"viability, T/C",[49],82.3%
same,"viability, T/C",[50],102%
same,"viability, T/C",[51],100%
same,"viability, T/C",[52],71.5%
same,"viability, T/C",[29],81.4%
same,"viability, T/C",[30],91%
same,"viability, T/C",[53],72.6%
same,"viability, T/C",[54],81.2%
same,"viability, T/C",[55],93.8%
same,"viability, T/C",[56],59%
same,"viability, T/C",[35],83.3%
same,"viability, T/C",[36],76.8%
same,"viability, T/C",[57],69.8%
same,"viability, T/C",[58],71.5%
same,"viability, T/C",[59],75.5%
same,"viability, T/C",[60],63.7%
CCCS(=O)(=O)Nc1ccc(F)c(C(=O)c2c[nH]c3ncc(-c4ccc(Cl)cc4)cc23)c1F + Cc1nc(NC(=O)N2CCCC2C(N)=O)sc1-c1ccnc(C(C)(C)C(F)(F)F)c1,IC50,second compound 0.0316 µM,4.36 µM
same,IC50,second compound 0.1 µM,3.88 µM
same,IC50,second compound 0.316 µM,5.58 µM
same,IC50,second compound 1 µM,4.71 µM
same,IC50,second compound 3.16 µM,4.23 µM
same,IC50,second compound 10 µM,4.46 µM
same,"viability, T/C",[5],84.6%
same,"viability, T/C",[6],96.3%
same,"viability, T/C",[37],67.6%
same,"viability, T/C",[38],80.9%
same,"viability, T/C",[39],68.5%
same,"viability, T/C",[40],2.55%
same,"viability, T/C",[11],87.3%
same,"viability, T/C",[12],66.7%
same,"viability, T/C",[41],86.7%
same,"viability, T/C",[42],108%
same,"viability, T/C",[43],59.9%
same,"viability, T/C",[44],4.2%
same,"viability, T/C",[17],98.5%
same,"viability, T/C",[18],84.8%
same,"viability, T/C",[45],74.3%
same,"viability, T/C",[46],84.8%
same,"viability, T/C",[47],81.9%
same,"viability, T/C",[48],17.3%
same,"viability, T/C",[23],78%
same,"viability, T/C",[24],84.7%
same,"viability, T/C",[49],71.3%
same,"viability, T/C",[50],67.5%
same,"viability, T/C",[51],73.7%
same,"viability, T/C",[52],5.17%
same,"viability, T/C",[29],68.8%
same,"viability, T/C",[30],66%
same,"viability, T/C",[53],78.5%
same,"viability, T/C",[54],72.5%
same,"viability, T/C",[55],63.4%
same,"viability, T/C",[56],8.66%
same,"viability, T/C",[35],60.4%
same,"viability, T/C",[36],61.4%
same,"viability, T/C",[57],80%
same,"viability, T/C",[58],55.6%
same,"viability, T/C",[59],70.2%
same,"viability, T/C",[60],13.4%
